Measurements: ChEMBL document CHEMBL1201862, “PubChem BioAssay data set” (2004)
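Compound exposure: 48 hours, 5 concentrations, 96-well plates. GI50: concentration for 50% inhibition of growth.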 The source made the active and inactive calls. Rule as the data show it: active = GI50 up to about 1.1 µM and inactive = higher.

Tests used:
Assay in all cases: inhibition of tumour cell growth, NCI panel, 48 h
[1] = tested on: SNB-19
[2] = tested on: SK-MEL-28
[3] = tested on: 786-0
[4] = tested on: IGROV-1
[5] = tested on: COLO 205
[6] = tested on: LOX IMVI
[7] = tested on: MDA-N
[8] = tested on: NCI-H460
[9] = tested on: BT-549
[10] = tested on: MDA-MB-435
[11] = tested on: SW-620
[12] = tested on: OVCAR-3
[13] = tested on: HT-29
[14] = tested on: HCC 2998
[15] = tested on: U-251
[16] = tested on: UO-31
[17] = tested on: SR
[18] = tested on: MCF7
[19] = tested on: SF-539
[20] = tested on: CAKI-1
[21] = tested on: HL-60
[22] = tested on: SK-MEL-5
[23] = tested on: UACC-257
[24] = tested on: EKVX
[25] = tested on: NCI-H226
[26] = tested on: Malme-3M
[27] = tested on: Hs-578T
[28] = tested on: HOP-92
[29] = tested on: UACC-62
[30] = tested on: NCI-H522
[31] = tested on: RXF 393
[32] = tested on: TK-10
[33] = tested on: A549
[34] = tested on: KM12
[35] = tested on: ACHN
[36] = tested on: SN12C
[37] = tested on: HOP-62
[38] = tested on: OVCAR-5
[39] = tested on: MOLT-4
[40] = tested on: T47D
[41] = tested on: A498
[42] = tested on: CCRF-CEM
[43] = tested on: HCT-15
[44] = tested on: OVCAR-8
[45] = tested on: SK-MEL-2
[46] = tested on: MDA-MB-231
[47] = tested on: M14
[48] = tested on: K562
[49] = tested on: SF-268
[50] = tested on: PC-3
[51] = tested on: NCI/ADR-RES
[52] = tested on: SF-295
[53] = tested on: DU-145
[54] = tested on: SNB-75
[55] = tested on: RPMI-8226
[56] = tested on: SK-OV-3
[57] = tested on: NCI-H23
[58] = tested on: HCT-116
[59] = tested on: OVCAR-4

SMILES: CN(C)c1ccc(C=c2c3ccccc3n3c2c2ccccc2[n+]3C)cc1
- GI50 [1]: 1250 nM (inactive)
- GI50 [2]: 521 nM (active)
- GI50 [3]: 301 nM (active)
- GI50 [4]: 820 nM (active)
- GI50 [5]: 68.2 nM (active)
- GI50 [6]: 597 nM (active)
- GI50 [7]: 526 nM (active)
- GI50 [8]: 2840 nM (inactive)
- GI50 [9]: 274 nM (active)
- GI50 [10]: 428 nM (active)
- GI50 [11]: 164 nM (active)
- GI50 [12]: 239 nM (active)
- GI50 [13]: 689 nM (active)
- GI50 [14]: 671 nM (active)
- GI50 [15]: 196 nM (active)
- GI50 [16]: 836 nM (active)
- GI50 [17]: 199 nM (active)
- GI50 [18]: 822 nM (active)
- GI50 [19]: 513 nM (active)
- GI50 [20]: 1080 nM (active)
- GI50 [21]: 51 nM (active)
- GI50 [22]: 112 nM (active)
- GI50 [23]: 330 nM (active)
- GI50 [24]: 2650 nM (inactive)
- GI50 [25]: 3080 nM (inactive)
- GI50 [26]: 392 nM (active)
- GI50 [27]: 635 nM (active)
- GI50 [28]: 421 nM (active)
- GI50 [29]: 305 nM (active)
- GI50 [30]: 174 nM (active)
- GI50 [31]: 1520 nM (inactive)
- GI50 [32]: 1200 nM (inactive)
- GI50 [33]: 3730 nM (inactive)
- GI50 [34]: 1010 nM (active)
- GI50 [35]: 867 nM (active)
- GI50 [36]: 518 nM (active)
- GI50 [37]: 942 nM (active)
- GI50 [38]: 3020 nM (inactive)
- GI50 [39]: 493 nM (active)
- GI50 [40]: 248 nM (active)
- GI50 [41]: 1690 nM (inactive)
- GI50 [42]: 150 nM (active)
- GI50 [43]: 456 nM
- GI50 [44]: 364 nM (active)
- GI50 [45]: 258 nM (active)
- GI50 [46]: 877 nM (active)
- GI50 [47]: 493 nM (active)
- GI50 [48]: 134 nM (active)
- GI50 [49]: 425 nM (active)
- GI50 [50]: 353 nM (active)
- GI50 [51]: 3930 nM (inactive)
- GI50 [52]: 1520 nM (inactive)
- GI50 [53]: 1300 nM (inactive)
- GI50 [54]: 2170 nM (inactive)
- GI50 [55]: 138 nM (active)
- GI50 [56]: 2640 nM (inactive)
- GI50 [57]: 1010 nM (active)
- GI50 [58]: 354 nM (active)
- GI50 [59]: 1180 nM (inactive)
